Columns and labels:
C8166 [1] = experiment: In vitro anti-viral activity against C8166 cells (human T-cell line), expressed as the lowest test concentration affording complete protection to the culture (Infectious titre); 0.1-1; assay type: functional
[2] = Concentration determined to be cytotoxic (reduced cell number as compared with controls), was recorded after 7 days incubation in the […] assay system; assay type: cell-based; details: human, H9 cells (H9/HIV-IIIB assay system); read-out: Cell toxicity
H9 = experiment: In vitro antiviral activity against human T-cell line (H9) infected with HIV-1 IIIB was determined as the lowest concentration required to reduce tissue culture supernatant p24 levels on day 7 by 90%; assay type: functional; details: H9, 168 h
[3] = biological target: T1, Human immunodeficiency virus type 1 reverse transcriptase (Human immunodeficiency virus 1, UniProt Q72547); experiment: Ability to inhibit HIV-1 IIIB reverse transcriptase catalyzed incorporation of tritiated thymidine triphosphate onto a biotinylated rA.dT template primer
[4] = biological target: T1, Human immunodeficiency virus type 1 reverse transcriptase; experiment: Ability to inhibit HIV-1 IIIB reverse transcriptase catalyzed incorporation of tritiated thymidine triphosphate onto a biotinylated rN.dN template primer
C8166 [5] = experiment: In vitro anti-viral activity against C8166 cells (human T-cell line), expressed as the lowest test concentration affording complete protection to the culture (Infectious titre); assay type: functional
C8166 [6] = experiment: In vitro anti-viral activity against C8166 cells (human T-cell line), expressed as the lowest test concentration affording complete protection to the culture (Infectious titre);. 0.1-1; assay type: functional
C8166 [7] = experiment: In vitro anti-viral activity against C8166 cells (human T-cell line), expressed as the lowest test concentration affording complete protection to the culture (Infectious titre); 0.01-0.1; assay type: functional
C8166 [8] = experiment: In vitro anti-viral activity against C8166 cells (human T-cell line), expressed as the lowest test concentration affording complete protection to the culture (Infectious titre);. 0.1-0.5; assay type: functional
C8166 [9] = experiment: In vitro anti-viral activity against C8166 cells (human T-cell line), expressed as the lowest test concentration affording complete protection to the culture (Infectious titre); 0.1-0.5; assay type: functional

Row | IC90 (H9) [nM] | IC50 [3] [nM] | IC50 [4] [nM] | Compound | MCC at 168 h [2] [µM] | also measured
1 | 250 | 2400 | 1100 | CCN1c2ncccc2-c2ncc(C)n2-c2ccc(N(C)C)nc21 | > 100 | IC100 (C8166 [1]): 0.1 µM
2 | – | 11500 | 7820 | Cc1nnc2n1-c1cccnc1N(C1CC1)c1ncccc1-2 | – | –
3 | – | 72800 | – | CCN1c2ncccc2-c2nncn2-c2cccnc21 | – | –
4 | 8 | 598 | 258 | CCN1c2ncccc2-c2nccn2-c2ccc(OC)nc21 | > 10 | IC100 (C8166 [5]): 0.1 µM
5 | – | > 100000 | 62600 | CCN1c2ncccc2-c2nnc(C(C)C)n2-c2cccnc21 | – | –
6 | – | 11200 | 2750 | CCN1c2ncccc2-c2nc(C)cn2-c2cccnc21 | – | –
7 | 550 | 1620 | 245 | CCN1c2ncccc2-c2nccn2-c2c(C)ccnc21 | > 100 | IC100 (C8166 [6]): 0.1 µM
8 | – | 56600 | 20200 | CCc1nnc2n1-c1cccnc1N(CC)c1ncccc1-2 | – | –
9 | – | 38900 | – | CCN1c2ncccc2-c2nnc(C)n2-c2cccnc21 | – | –
10 | – | 2700 | 1770 | CCN1c2ncccc2-c2ncc(C)n2-c2ccc(N3CCCC3)nc21 | – | –
11 | – | 75100 | 6720 | CCN1c2ncccc2-c2nnnn2-c2c(C)ccnc21 | – | –
12 | – | 10300 | 1500 | CCN1c2ncccc2C(=O)Nc2c(C)ccnc21 | – | –
13 | 18 | 1220 | 425 | CCN1c2ncccc2-c2ncc(C)n2-c2cccnc21 | > 100 | IC100 (C8166 [7]): 0.01 µM
14 | 2.3 | 190 | 156 | CCN1c2ncccc2-c2ncc(C)n2-c2ccc(OC)nc21 | > 10 | IC100 (C8166 [5]): 0.01 µM
15 | – | 2050 | 217 | Cc1ccnc2c1-n1ccnc1-c1cccnc1N2C1CC1 | – | –
16 | 41 | 3900 | 2190 | CCN1c2ncccc2-c2nccn2-c2ccc(N(C)C)nc21 | 10 | IC100 (C8166 [5]): 0.1 µM
17 | 110 | 12200 | 3200 | CCN1c2ncccc2-c2ncc(C)n2-c2ccc(O)nc21 | > 100 | IC100 (C8166 [1]): 0.1 µM
18 | – | 198000 | – | CCN1c2ncccc2-c2nnc(C)n2-c2c(C)ccnc21 | – | –
19 | – | > 100000 | > 100000 | CCN1c2ncccc2-c2nnc(CN(C)C)n2-c2cccnc21 | – | –
20 | 70 | 11200 | 775 | CCN1c2ncccc2-c2nccn2-c2cccnc21 | 50 | IC100 (C8166 [8]): 0.1 µM
21 | – | 23900 | 6980 | CCN1c2ncccc2-c2nccn2-c2ccc(O)nc21 | – | –
22 | – | 5630 | 1100 | CCc1cnc2n1-c1cccnc1N(CC)c1ncccc1-2 | – | –
23 | 82 | 3900 | 2000 | CCN1c2ncccc2-c2nccn2-c2ccc(N3CCCC3)nc21 | 100 | IC100 (C8166 [1]): 0.1 µM
24 | – | > 100000 | – | CCN1c2ncccc2-c2nnc(-c3ccccc3)n2-c2cccnc21 | – | –
25 | – | 44500 | – | CCN1c2ncccc2-c2nncn2-c2c(C)ccnc21 | – | –

Row | Compound | IC90 (H9) [nM] | IC50 [3] [nM] | IC50 [4] [nM] | MCC at 168 h [2] [µM] | also measured
26 | Cc1ccnc2c1NC(=O)c1cccnc1N2C1CC1 [NEVIRAPINE] | 78 | – | – | > 10 | IC100 (C8166 [9]): 0.1 µM

Source: ChEMBL document CHEMBL1126391 (Bioorg Med Chem Lett, 1992)
